Reference: patent US11413243B2, “Fusogenic compounds for delivery of biologically active molecules” (Nitto Denko Corporation, priority 2017, dated 2022)
Read-outs that look alike come from different tables or passages of the source.

Test system: HSP47
Conditions: for HSP47 gene expression knockdown compared to control formulation without fusogenic compound: HEDC and S104 liposomes, all concentrations of siRNA; for % of Expression at Dose (nM) 18 nM / % of HSP47 expression in Stellate Cell, Conc siRNA 18 nM: siRNA 18 nM; for % of Expression at Dose (nM) 75 nM / % of HSP47 expression in Stellate Cell, Conc siRNA 75 nM: siRNA 75 nM; for % of Expression at Dose (nM) 300 nM / % of HSP47 expression in Stellate Cell, Conc siRNA 300 nM: siRNA 300 nM; for % of HSP47 expression in Stellate Cell, Conc siRNA 18 nM / % of HSP47 expression in Stellate Cell, Conc siRNA 75 nM / % of HSP47 expression in Stellate Cell, Conc siRNA 300 nM: Table 5, stellate cells
Experimental: The in vitro activity for gene expression knockdown using an siRNA was measured using rat stellate cells in DMEM medium according to the following protocol: One day before the transfection, plate the cells in a 96-well plate at 3×10^3 cells per well for Stellate cells with 100 μl of medium containing 10% FBS and culture in a 37° C. incubator containing a humidified atmosphere of 5% CO2 in air. Before transfection, change medium to 90 μl of medium without antibiotics. Prepare the appropriate dilutions of the solution collected from the tubing in PBS buffer so that the addition of 10 μl into each well is sufficient to reach the desired concentration. 48 hours after transfection, wash the cells once with ice-cold PBS. Lyse the cells with 50 μl of Cell-to-Ct Lysis Buffer for 5-30 minutes at ambient temperature. Add 5 μl of Stop Solution and incubate for 2 minutes at ambient temperature. Measure mRNA level by qPCR with TAQMAN immediately. Alternatively, the samples can be frozen at −80° C. and assayed at later times. For qRT-PCR assay: Thaw all reagents on ice. Mix the pooled reagents in 0.2 ml PCR tubes. Dispense the set-up mixture into 384 well plate, 10 μl/well×3. Seal the plate with film, spin down mixture into the bottom of wells. Perform qRT-PCR assay.
In this example, an HSP47 siRNA was used to knockdown HSP47 gene. For TaqMan gene expression assays, HSP47 gene specific TaqMan probe was used.

Row | SMILES | % of Expression at Dose (nM) 18 nM (Table 3, rat stellate cells) [%] | % of Expression at Dose (nM) 75 nM (Table 3, rat stellate cells) [%] | % of Expression at Dose (nM) 300 nM (Table 3, rat stellate cells) [%] | % of HSP47 expression in Stellate Cell, Conc siRNA 18 nM [%] | % of HSP47 expression in Stellate Cell, Conc siRNA 75 nM [%] | % of HSP47 expression in Stellate Cell, Conc siRNA 300 nM [%] | also measured
1 | CCCCC/C=C\C/C=C\CCCCCCCC(=O)OCCN(CCOC(=O)CCCCCCC/C=C\C/C=C\CCCCC)C(=O)CCC(=O)NCCCC[C@H](NC(=O)CCC(=O)N(CCOC(=O)CCCCCCC/C=C\C/C=C\CCCCC)CCOC(=O)CCCCCCC/C=C\C/C=C\CCCCC)C(=O)NCCCOCCOCCOCCCNC(=O)CCOCCOCCOCCOCCOCCC(=O)NCCCOCCOCCOCCCNC(=O)[C@H](CCCCNC(=O)CCC(=O)N(CCOC(=O)CCCCCCC/C=C\C/C=C\CCCCC)CCOC(=O)CCCCCCC/C=C\C/C=C\CCCCC)NC(=O)CCC(=O)N(CCOC(=O)CCCCCCC/C=C\C/C=C\CCCCC)CCOC(=O)CCCCCCC/C=C\C/C=C\CCCCC [Compound R4] | 16 | 10 | 6 | – | – | – | activity for gene expression knockdown in stellate cells compared to control formulation (FIG. 24, Table 6 formulation HEDC:S104:DOPE:CH:DMPE-PEG with 2% (of total lipids) fusogenic compound): surprisingly increased; HSP47 gene expression knockdown compared to control formulation without fusogenic compound (FIG. 46, fusogenic compound 2% of the total lipids): greatly and surprisingly increased; HSP47 gene expression knockdown compared to control formulation without fusogenic compound (FIG. 46, fusogenic compound 10% of the total lipids): greatly and surprisingly increased; HSP47 gene expression knockdown compared to control formulation without fusogenic compound (FIG. 47, fusogenic compound 2% of the total lipids): greatly and surprisingly increased; % of Expression at Dose (nM) 50 nM (Table 3, siRNA 50 nM, rat stellate cells, 48 hours after transfection): 44%; % of Expression at Dose (nM) 200 nM (Table 3, siRNA 200 nM, rat stellate cells, 48 hours after transfection): 15%
2 | CCCCC/C=C\C/C=C\CCCCCCCC(=O)OCCN(CCOC(=O)CCCCCCC/C=C\C/C=C\CCCCC)C(=O)CCC(=O)NC(CCCCNC(C)=O)C(=O)NCCCOCCOCCOCCOCCOCCCNC(=O)[C@H](CCCCNC(C)=O)NC(=O)CCC(=O)N(CCOC(=O)CCCCCCC/C=C\C/C=C\CCCCC)CCOC(=O)CCCCCCC/C=C\C/C=C\CCCCC (stereo partly drawn) [Compound T14] | – | – | – | 103.3 | 59.1 | 5.2 | –
3 | CC/C=C\C/C=C\C/C=C\CCCCCCCC(=O)OCCN(CCOC(=O)CCCCCCC/C=C\C/C=C\C/C=C\CC)C(=O)CCC(=O)NCCCC[C@H](NC(=O)CCC(=O)N(CCOC(=O)CCCCCCC/C=C\C/C=C\C/C=C\CC)CCOC(=O)CCCCCCC/C=C\C/C=C\C/C=C\CC)C(=O)NCCCOCCOCCOCCOCCOCCCNC(=O)[C@H](CCCCNC(=O)CCC(=O)N(CCOC(=O)CCCCCCC/C=C\C/C=C\C/C=C\CC)CCOC(=O)CCCCCCC/C=C\C/C=C\C/C=C\CC)NC(=O)CCC(=O)N(CCOC(=O)CCCCCCC/C=C\C/C=C\C/C=C\CC)CCOC(=O)CCCCCCC/C=C\C/C=C\C/C=C\CC [Compound T8] | – | – | – | – | – | – | % of Expression at Dose (nM) 18 nM (Table 4, rat stellate cells): 29%; % of Expression at Dose (nM) 75 nM (Table 4, rat stellate cells): 9%; % of Expression at Dose (nM) 300 nM (Table 4, rat stellate cells): 8%
4 | CCCCC/C=C\C/C=C\CCCCCCCCOC(=O)[C@H]1C[C@H](NCC(=O)CCC(=O)NCCCCC(NC(=O)CCC(=O)N[C@H]2C[C@H](C(=O)OCCCCCCCC/C=C\C/C=C\CCCCC)N(C(=O)CCCCCCC/C=C\C/C=C\CCCCC)C2)C(=O)NCCCOCCOCCOCCOCCOCCCNC(=O)C(CCCCNC(=O)CCC(=O)N[C@@H]2C[C@@H](C(=O)OCCCCCCCC/C=C\C/C=C\CCCCC)N(C(=O)CCCCCCC/C=C\C/C=C\CCCCC)C2)NC(=O)CCC(=O)N[C@@H]2C[C@@H](C(=O)OCCCCCCCC/C=C\C/C=C\CCCCC)N(C(=O)CCCCCCC/C=C\C/C=C\CCCCC)C2)CN1C(=O)CCCCCCC/C=C\C/C=C\CCCCC (stereo partly drawn) [Compound T10] | – | – | – | 11.1 | 4.2 | 1.9 | –
5 | CCCCCCCC/C=C\CCCCCCCC(=O)OCCN(CCOC(=O)CCCCCCC/C=C\CCCCCCCC)C(=O)CCC(=O)NCCCC[C@H](NC(=O)CCC(=O)N(CCOC(=O)CCCCCCC/C=C\CCCCCCCC)CCOC(=O)CCCCCCC/C=C\CCCCCCCC)C(=O)NCCCOCCOCCOCCOCCOCCCNC(=O)[C@H](CCCCNC(=O)CCC(=O)N(CCOC(=O)CCCCCCC/C=C\CCCCCCCC)CCOC(=O)CCCCCCC/C=C\CCCCCCCC)NC(=O)CCC(=O)N(CCOC(=O)CCCCCCC/C=C\CCCCCCCC)CCOC(=O)CCCCCCC/C=C\CCCCCCCC [Compound S7] | 57 | 48 | 27 | – | – | – | –
6 | CCCCC/C=C\C/C=C\CCCCCCCC(=O)OCCN(CCOC(=O)CCCCCCC/C=C\C/C=C\CCCCC)C(=O)CCC(=O)NCCCC[C@H](NC(C)=O)C(=O)NCCCOCCOCCOCCOCCOCCCNC(=O)[C@H](CCCCNC(=O)CCC(=O)N(CCOC(=O)CCCCCCC/C=C\C/C=C\CCCCC)CCOC(=O)CCCCCCC/C=C\C/C=C\CCCCC)NC(C)=O [Compound T13] | – | – | – | 21.8 | 6.4 | 3.1 | –
7 | CCCCC/C=C\C/C=C\CCCCCCCC(=O)OCCN(CCOC(=O)CCCCCCC/C=C\C/C=C\CCCCC)C(=O)CCCC(=O)NCCCC[C@H](NC(=O)CCCC(=O)N(CCOC(=O)CCCCCCC/C=C\C/C=C\CCCCC)CCOC(=O)CCCCCCC/C=C\C/C=C\CCCCC)C(=O)NCCCOCCOCCOCCOCCOCCCNC(=O)[C@H](CCCCNC(=O)CCCC(=O)N(CCOC(=O)CCCCCCC/C=C\C/C=C\CCCCC)CCOC(=O)CCCCCCC/C=C\C/C=C\CCCCC)NC(=O)CCCC(=O)N(CCOC(=O)CCCCCCC/C=C\C/C=C\CCCCC)CCOC(=O)CCCCCCC/C=C\C/C=C\CCCCC [Compound T5] | – | – | – | – | – | – | % of Expression at Dose (nM) 18 nM (Table 4, rat stellate cells): 29%; % of Expression at Dose (nM) 75 nM (Table 4, rat stellate cells): 13%; % of Expression at Dose (nM) 300 nM (Table 4, rat stellate cells): 11%
8 | CCCCC/C=C\C/C=C\CCCCCCCC(=O)OCCN(CCOC(=O)CCCCCCC/C=C\C/C=C\CCCCC)C(=O)CCC(=O)NCCCCC(NC(=O)CCC(=O)N(CCOC(=O)CCCCCCC/C=C\C/C=C\CCCCC)CCOC(=O)CCCCCCC/C=C\C/C=C\CCCCC)C(=O)NCCCOCCOCCOCCCNC(=O)C(CCCCNC(=O)CCC(=O)N(CCOC(=O)CCCCCCC/C=C\C/C=C\CCCCC)CCOC(=O)CCCCCCC/C=C\C/C=C\CCCCC)NC(=O)CCC(=O)N(CCOC(=O)CCCCCCC/C=C\C/C=C\CCCCC)CCOC(=O)CCCCCCC/C=C\C/C=C\CCCCC (stereo not drawn) [Compound T4] | 82 | 70 | 44 | – | – | – | % of Expression at Dose (nM) 18 nM (Table 4, rat stellate cells): 27%; % of Expression at Dose (nM) 75 nM (Table 4, rat stellate cells): 10%; % of Expression at Dose (nM) 300 nM (Table 4, rat stellate cells): 8%
9 | CCCCCCCCCCCCCC(=O)OCCN(CCOC(=O)CCCCCCCCCCCCC)C(=O)CCC(=O)NCCCC[C@H](NC(=O)CCC(=O)N(CCOC(=O)CCCCCCCCCCCCC)CCOC(=O)CCCCCCCCCCCCC)C(=O)NCCCOCCOCCOCCOCCOCCCNC(=O)[C@H](CCCCNC(=O)CCC(=O)N(CCOC(=O)CCCCCCCCCCCCC)CCOC(=O)CCCCCCCCCCCCC)NC(=O)CCC(=O)N(CCOC(=O)CCCCCCCCCCCCC)CCOC(=O)CCCCCCCCCCCCC [Compound T2] | 82 | 70 | 44 | – | – | – | –
10 | CCCCC/C=C\C/C=C\CCCCCCCC(=O)OCC(OC(=O)CCCCCCC/C=C\C/C=C\CCCCC)C1CCN(C(=O)CCC(=O)NCCCCC(NC(=O)CCC(=O)N2CCC(C(COC(=O)CCCCCCC/C=C\C/C=C\CCCCC)OC(=O)CCCCCCC/C=C\C/C=C\CCCCC)CC2)C(=O)NCCCOCCOCCOCCOCCOCCCNC(=O)C(CCCCNC(=O)CCC(=O)N2CCC(C(COC(=O)CCCCCCC/C=C\C/C=C\CCCCC)OC(=O)CCCCCCC/C=C\C/C=C\CCCCC)CC2)NC(=O)CCC(=O)N2CCC(C(COC(=O)CCCCCCC/C=C\C/C=C\CCCCC)OC(=O)CCCCCCC/C=C\C/C=C\CCCCC)CC2)CC1 (stereo not drawn) [Compound T11] | – | – | – | 11.1 | 4.5 | 1.8 | –
11 | CCCCC/C=C\C/C=C\CCCCCCCCOC(=O)[C@H](COC(=O)CCC(=O)NCCCCC(NC(=O)CCC(=O)OC[C@H](NC(=O)CCCCCCC/C=C\C/C=C\CCCCC)C(=O)OCCCCCCCC/C=C\C/C=C\CCCCC)C(=O)NCCCOCCOCCOCCOCCOCCCNC(=O)C(CCCNC(=O)CCC(=O)OC[C@@H](NC(=O)CCCCCCC/C=C\C/C=C\CCCCC)C(=O)OCCCCCCCC/C=C\C/C=C\CCCCC)NC(=O)CCC(=O)OC[C@@H](NC(=O)CCCCCCC/C=C\C/C=C\CCCCC)C(=O)OCCCCCCCC/C=C\C/C=C\CCCCC)NC(=O)CCCCCCC/C=C\C/C=C\CCCCC (stereo partly drawn) [Compound T12] | – | – | – | 40.2 | 8.4 | 2.7 | –
12 | CCCCCCCCCCCCCC(=O)OCCN(CCOC(=O)CCCCCCCCCCCCC)C(=O)CCC(=O)NCCCC[C@H](NC(=O)CCC(=O)N(CCOC(=O)CCCCCCCCCCCCC)CCOC(=O)CCCCCCCCCCCCC)C(=O)NCCCOCCOCCOCCCNC(=O)CCOCCOCCOCCOCCOCCC(=O)NCCCOCCOCCOCCCNC(=O)[C@H](CCCCNC(=O)CCC(=O)N(CCOC(=O)CCCCCCCCCCCCC)CCOC(=O)CCCCCCCCCCCCC)NC(=O)CCC(=O)N(CCOC(=O)CCCCCCCCCCCCC)CCOC(=O)CCCCCCCCCCCCC [Compound T1] | 76 | 68 | 44 | – | – | – | –
